# In the supplement of paper PMC10307832:
# Assays:
# Test in all cases: relative viability (nuclei count vs DMSO), 5 days (fraction); higher = more cells survive
# Ispinesib + Olaparib = compound: Cc1ccc(C(=O)N(CCCN)[C@@H](c2nc3cc(Cl)ccc3c(=O)n2Cc2ccccc2)C(C)C)cc1 [Ispinesib] + O=C(c1cc(Cc2n[nH]c(=O)c3ccccc23)ccc1F)N1CCN(C(=O)C2CC2)CC1 [Olaparib] (partner 8 µM)
# Summary of the method: (§1)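 Relative viability equals treated-well nuclei counts divided by vehicle-well nuclei counts. Counts came from 4× images of lung cancer cell lines grown in 1536-well plates for 5 days after pin-tool dosing on the day after seeding. Dosing used one drug alone or a fixed anchor-drug dose plus five library-drug doses (not always all listed) in √10 steps, and values are medians of duplicate plates.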
# Linsitinib + Phenformin = compound: C[C@]1(O)C[C@@H](c2nc(-c3ccc4ccc(-c5ccccc5)nc4c3)c3c(N)nccn32)C1 [Linsitinib] + N=C(N)NC(=N)NCCc1ccccc1 [Phenformin] (partner 250 µM)
# Summary of the method: as §1
# Ispinesib + Decitabine = compound: Cc1ccc(C(=O)N(CCCN)[C@@H](c2nc3cc(Cl)ccc3c(=O)n2Cc2ccccc2)C(C)C)cc1 [Ispinesib] + Nc1ncn([C@H]2C[C@H](O)[C@@H](CO)O2)c(=O)n1 [Decitabine] (partner 2 µM)
# Summary of the method: as §1
# Linsitinib + Palbociclib = compound: C[C@]1(O)C[C@@H](c2nc(-c3ccc4ccc(-c5ccccc5)nc4c3)c3c(N)nccn32)C1 [Linsitinib] + CC(=O)c1c(C)c2cnc(Nc3ccc(N4CCNCC4)cn3)nc2n(C2CCCC2)c1=O [Palbociclib] (partner 0.5 µM)
# Summary of the method: as §1
cell line,measurement,setting,value
UMC-11,relative viability,Ispinesib + Olaparib; first compound 0.001 µM,0.693
same,relative viability,Ispinesib + Olaparib; first compound 0.003162 µM,0.389
same,relative viability,Ispinesib + Olaparib; first compound 0.01 µM,0.345
same,relative viability,Ispinesib + Olaparib; first compound 0.03162 µM,0.325
same,relative viability,Ispinesib + Olaparib; first compound 0.1 µM,0.272
same,relative viability,Linsitinib + Phenformin; first compound 0.01 µM,0.332
same,relative viability,Linsitinib + Phenformin; first compound 0.03162 µM,0.29
same,relative viability,Linsitinib + Phenformin; first compound 0.1 µM,0.343
same,relative viability,Linsitinib + Phenformin; first compound 1 µM,0.321
same,relative viability,Ispinesib + Decitabine; first compound 0.001 µM,0.67
same,relative viability,Ispinesib + Decitabine; first compound 0.003162 µM,0.904
same,relative viability,Ispinesib + Decitabine; first compound 0.01 µM,0.583
same,relative viability,Ispinesib + Decitabine; first compound 0.03162 µM,0.28
same,relative viability,Ispinesib + Decitabine; first compound 0.1 µM,0.23
same,relative viability,Linsitinib + Palbociclib; first compound 0.01 µM,0.303
same,relative viability,Linsitinib + Palbociclib; first compound 0.03162 µM,0.301
same,relative viability,Linsitinib + Palbociclib; first compound 0.1 µM,0.33
same,relative viability,Linsitinib + Palbociclib; first compound 0.3162 µM,0.322
same,relative viability,Linsitinib + Palbociclib; first compound 1 µM,0.332
